Read-outs that look alike come from different tables or passages of the source.
Key:
TMPRSS13 = target: T1, TMPRSS13 (Homo sapiens, UniProt Q9BYE2, K566A/R563A/R565A); experiment: In vitro inhibition assay, recombinant TMPRSS13-AFAAS-6His, Boc-RVRR-AMC; assay type: biochemical; settings: dose-response curve, Cheng-Prusoff equation
T1 construct: Shedding of the TMPRSS13 catalytic domain was detected for both constructs in the cell media; made in house; host or cells: Expi293F cells
T1 sequence (Q9BYE2 with tags, fused parts or gaps isoform Q9BYE2-6 limits assumed): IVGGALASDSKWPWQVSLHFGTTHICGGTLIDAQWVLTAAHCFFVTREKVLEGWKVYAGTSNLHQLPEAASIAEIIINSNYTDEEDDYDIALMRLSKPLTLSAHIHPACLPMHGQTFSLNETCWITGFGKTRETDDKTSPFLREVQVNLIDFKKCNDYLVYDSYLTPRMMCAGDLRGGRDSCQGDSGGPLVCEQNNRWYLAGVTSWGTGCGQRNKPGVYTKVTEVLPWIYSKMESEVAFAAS
Experimental: TMPRSS13-AFAAS-6His was expressed via the Expi293 Expression System Kit (Thermo Fisher Scientific, A14635) according to the manufacturer’s instructions and purified via IMAC chromatography. Briefly, Expi293F cells were transfected for 48 h with the TMPRSS13-AFAAS-6His construct, and media containing the shed recombinant protease was injected on a HisTrap Excel column (Cytiva, 17371206) via an ÄKTA Start protein purification system (Cytiva). The bound proteins were then eluted (20 mM sodium phosphate pH 7.4, 500 mM NaCl, and 500 mM imidazole), and the TMPRSS13-containing fractions were dialysed for 16 h at 4 °C in storage buffer (20 mM sodium phosphate pH 7.4, 150 mM NaCl, and 10% glycerol). Proteins were then concentrated via a 10 kDa Amicon Ultra centrifugal filter (Millipore Sigma, UFC8010) and stored at −80 °C.
(§1) Recombinant TMPRSS13-AFAAS-6His (this study) and matriptase[34] were expressed and purified as described. Recombinant human furin, Factor Xa (R&D Systems) and thrombin (MilliporeSigma) were obtained from commercial sources. Assays were performed in a buffer composed of 50 mM HEPES pH 7.4, 1 mM β-mercaptoethanol, 1 mM CaCl2 and 500 μg/ml BSA for furin and 50 mM HEPES pH 7.4, 150 mM NaCl and 0.1% BSA for other proteases. Assays were performed at room temperature using fluorogenic substrates (Boc-RVRR-AMC for furin and TMPRSS13, Boc-QAR-AMC for other proteases). The enzymatic activity was measured via fluorescence (excitation at 360 nm and emission at 460 nm) at room temperature using an HTX Synergy microplate reader (Agilent). Kis for TMPRSS13 and Factor Xa (FXa) were derived from IC50 dose–response curves using the Cheng-Prusoff equation[35] for reversible competitive inhibitors. For matripase, a plot of the enzyme velocity as a function of the inhibitor concentration was fitted with nonlinear regression analysis via the Morrison Ki equation[36] for competitive tight-binding inhibitors.

matriptase [1] = target: T2, matriptase (Homo sapiens, UniProt Q9Y5Y6); experiment: In vitro inhibition assay, matriptase, Boc-QAR-AMC; assay type: biochemical; settings: Morrison Ki equation, tight-binding
T2 construct: made in house
T2 sequence (Q9Y5Y6 1-855): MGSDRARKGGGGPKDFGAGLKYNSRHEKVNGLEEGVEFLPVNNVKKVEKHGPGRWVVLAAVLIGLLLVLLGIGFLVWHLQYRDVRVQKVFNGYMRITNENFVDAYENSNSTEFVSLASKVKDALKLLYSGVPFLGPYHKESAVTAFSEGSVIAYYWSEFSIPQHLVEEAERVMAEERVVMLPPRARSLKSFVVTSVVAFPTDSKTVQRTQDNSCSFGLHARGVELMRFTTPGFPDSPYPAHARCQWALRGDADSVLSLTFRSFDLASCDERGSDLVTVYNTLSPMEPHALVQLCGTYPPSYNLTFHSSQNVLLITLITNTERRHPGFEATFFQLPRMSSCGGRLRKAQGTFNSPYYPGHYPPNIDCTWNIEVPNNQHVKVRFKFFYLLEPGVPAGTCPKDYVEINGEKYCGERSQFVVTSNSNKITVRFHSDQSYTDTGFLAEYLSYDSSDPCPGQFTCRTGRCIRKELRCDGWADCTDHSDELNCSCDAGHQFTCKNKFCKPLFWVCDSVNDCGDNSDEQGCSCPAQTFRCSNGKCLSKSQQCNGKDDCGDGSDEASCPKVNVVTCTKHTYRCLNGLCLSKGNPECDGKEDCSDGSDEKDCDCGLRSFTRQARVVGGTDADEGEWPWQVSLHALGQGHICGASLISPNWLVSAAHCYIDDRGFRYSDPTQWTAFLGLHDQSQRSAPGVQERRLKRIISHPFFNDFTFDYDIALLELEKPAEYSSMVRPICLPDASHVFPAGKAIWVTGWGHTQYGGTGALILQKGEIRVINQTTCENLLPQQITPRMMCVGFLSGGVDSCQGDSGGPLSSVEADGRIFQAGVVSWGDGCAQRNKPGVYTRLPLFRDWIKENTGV
Experimental: as §1

Factor Xa = target: T3, Factor Xa (Homo sapiens, UniProt P00742); experiment: In vitro inhibition assay, Factor Xa, Boc-QAR-AMC; assay type: biochemical; settings: Cheng-Prusoff equation
T3 construct: purchased R&D Systems
T3 sequence (P00742 235-488 limits assumed): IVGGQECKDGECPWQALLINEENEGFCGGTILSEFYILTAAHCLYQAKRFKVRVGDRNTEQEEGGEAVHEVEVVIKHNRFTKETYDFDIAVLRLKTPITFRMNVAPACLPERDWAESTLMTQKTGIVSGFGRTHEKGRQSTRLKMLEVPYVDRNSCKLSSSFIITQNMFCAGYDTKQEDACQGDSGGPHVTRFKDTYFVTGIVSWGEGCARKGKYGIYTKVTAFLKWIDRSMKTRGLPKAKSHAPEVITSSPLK
T3 sequence (P00742 41-179 partner limits assumed): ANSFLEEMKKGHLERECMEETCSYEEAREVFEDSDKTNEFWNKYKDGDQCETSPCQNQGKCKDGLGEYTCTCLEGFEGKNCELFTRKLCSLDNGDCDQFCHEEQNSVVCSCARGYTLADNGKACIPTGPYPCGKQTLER
Experimental: as §1

thrombin [2] = target: T4, thrombin (Homo sapiens, UniProt P00734); experiment: In vitro inhibition assay, thrombin, Boc-QAR-AMC; assay type: biochemical
T4 construct: purchased MilliporeSigma
Experimental: as §1

furin [3] = target: T5, furin (Homo sapiens, UniProt P09958); experiment: In vitro inhibition assay, furin, Boc-RVRR-AMC; assay type: biochemical
T5 construct: purchased R&D Systems
T5 sequence (P09958 108-794): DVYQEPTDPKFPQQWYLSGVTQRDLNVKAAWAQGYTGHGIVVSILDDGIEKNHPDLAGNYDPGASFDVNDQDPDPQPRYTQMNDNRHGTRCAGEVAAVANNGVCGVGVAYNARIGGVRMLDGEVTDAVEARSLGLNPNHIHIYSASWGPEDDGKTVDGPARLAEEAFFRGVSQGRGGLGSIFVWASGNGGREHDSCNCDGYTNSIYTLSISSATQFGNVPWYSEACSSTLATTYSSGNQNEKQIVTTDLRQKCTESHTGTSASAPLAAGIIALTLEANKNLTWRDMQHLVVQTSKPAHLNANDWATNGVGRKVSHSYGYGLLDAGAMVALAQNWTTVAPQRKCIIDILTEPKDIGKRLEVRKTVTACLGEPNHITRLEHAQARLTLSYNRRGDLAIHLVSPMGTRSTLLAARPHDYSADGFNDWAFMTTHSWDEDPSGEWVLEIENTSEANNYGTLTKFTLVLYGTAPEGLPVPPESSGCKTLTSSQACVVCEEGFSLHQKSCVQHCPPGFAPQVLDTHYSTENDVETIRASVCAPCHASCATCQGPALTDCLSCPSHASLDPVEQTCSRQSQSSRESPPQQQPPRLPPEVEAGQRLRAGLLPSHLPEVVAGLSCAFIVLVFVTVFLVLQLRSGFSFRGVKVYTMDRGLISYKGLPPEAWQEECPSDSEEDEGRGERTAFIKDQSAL
Experimental: as §1

matriptase [4] = target: T2, matriptase; set-up: method as in Shapira et al. 2022 Nature; settings: ref Shapira et al. 2022 Nature; cited from earlier work
thrombin [5] = target: T4, thrombin; set-up: method as in Shapira et al. 2022 Nature; settings: ref Shapira et al. 2022 Nature; cited from earlier work
furin [6] = target: T5, furin; set-up: method as in Shapira et al. 2022 Nature; settings: ref Shapira et al. 2022 Nature; cited from earlier work

SMILES | Ki (TMPRSS13) | Ki (matriptase [1]) | Ki Matriptase (matriptase [1]) | Ki (Factor Xa) | Ki (thrombin [2]) | Ki (furin [3]) | Ki (matriptase [4]) | Ki Matriptase (matriptase [4]) | Ki (thrombin [5]) | Ki (furin [6])
N=C(N)NCCCCC(=O)N[C@@H](CCC(N)=O)C(=O)N[C@@H](CCc1ccccc1)C(=O)N[C@@H](CCCNC(=N)N)C(=O)c1nc2ccccc2s1 [Compound N-0430, (H)-RQhFR-Kbt] | 0.0053 µM | 0.00028 ± 5e-05 µM | subnanomolar | 0.0569 ± 0.009 µM | > 10 µM | > 10 µM |  |  |  | 
N=C(N)NCCCCC(=O)N[C@@H](CCC(N)=O)C(=O)N[C@@H](Cc1ccccc1)C(=O)N[C@@H](CCCNC(=N)N)C(=O)c1nc2ccccc2s1 [Compound N-0130, (H)-RQFR-Kbt] | 0.0246 µM |  |  | 0.0482 ± 0.0037 µM |  |  | 0.00013 ± 3e-05 µM | subnanomolar | 8.23 ± 1.55 µM | > 10 µM

— PMC11843629, “Development of ketobenzothiazole-based peptidomimetic TMPRSS13 inhibitors with low nanomolar potency” (Journal of Enzyme Inhibition and Medicinal Chemistry, 2025)
